# Experimental data taken from article PMC6756013, “B591, a novel specific pan-PI3K inhibitor, preferentially targets cancer stem cells” (Oncogene, 2019).
# What was measured:
# [1] = test system: MDA-MB-231 and SUM-159PT monolayer and mammosphere cells; experiment: Proliferation inhibition of monolayer versus mammosphere cells; type: cell-based, human
# Protocol: The proliferation inhibitory activities of B591 were compared between monolayer and mammosphere cells.
# (§1) Cells were treated with indicated agents for 48 h, and cells were harvested and processed for apoptosis assay using the PE-Annexin V/7-AAD Apoptosis Detection Kit. d Representative flow cytometry plots of apoptosis inducing activity of B591 (10 μM) and paclitaxel (10 nM) on monolayer and mammosphere MDA-MB-231 cells. e B591 preferentially targeted CD44^high/CD24^low cells. Cells were treated with B591 or paclitaxel for 2 days. Following a 4-day recovery period, cells were co-stained with CD44 and CD24 antibodies and subjected to FACS analysis. Representative flow cytometry plots show the effect of B591 on CD44^high/CD24^low population in MDA-MB-231 cells in vitro. f B591 decreased mammosphere forming efficiency. Primary MDA-MB-231 mammospheres were treated with B591 or paclitaxel for 48 h. Results of the secondary mammosphere-formation assay are shown. Scale bar represents 40 μm. g B591 decreased the expression of CSC markers in MDA-MB-231 cells. Cells were treated with B591 or paclitaxel for 2 days. […] They label a gated population in plots with axes CD44 and CD24. / Panel E: DMSO is the vehicle control. Its printed value is included all the same.
# [2] = test system: MDA-MB-231 and SUM-159PT monolayer and mammosphere cells; experiment: Apoptosis of monolayer versus mammosphere cells (PE-Annexin V/7-AAD); type: cell-based, human; settings: 48 h
# Protocol: as §1
# Supplementary Fig. S10. B591 preferentially targets CSCs. […] Following a 4-day recovery period, the expression of CSC markers was analyzed with western blot analysis.
# [3] = test system: SUM-159PT orthotopic xenografts; experiment: Tumor recurrence study in SUM-159PT xenografts; type: in vivo, NOD/SCID mice; settings: paclitaxel 4 mg/kg, B591 10 mg/kg, i.p., 2 weeks, then 3 weeks recurrence
# Protocol: (§2) Fig. 6 B591 reduces breast tumor metastasis and recurrence. a Representative images show the effect of B591 (8 mg/kg) on lung metastasis of 4T1 cells, and data from six mice were plotted. b SUM-159PT cells were respectively treated with the indicated agents (8 nM Paclitaxel, 8 nM Paclitaxel plus 5 μM B591) for 24 h, the cells were then cultured for mammospheres. Representative images were shown, and data from two independent experiments were plotted. c–f SUM-159PT xenografts (n = 7) were treated with 4 mg/kg Paclitaxel, or 10 mg/kg B591, or both for 2 weeks, then ended the treatment and waited for tumor recurrence. Tumor volume (c) and body weight (d) were measured every 2 days after treatment, and tumors were photographed (e) and weighted (f) at the end of the experiment. ^*p < 0.05, ^**p < 0.01 versus indicated groups
# In the tumor recurrence study, orthotopic xenografts were established with 5 × 10^6 SUM-159PT cells. When tumor volume reached about 50 mm^3, mice were randomly divided into four groups for treatment with vehicle, 4 mg/kg Paclitaxel, 10 mg/kg B591, and combination of 4 mg/kg Paclitaxel plus 10 mg/kg B591 (i.p.). Treatment was stopped after 2 weeks, and the tumors were allowed for recurrence for 3 weeks. Tumor volume and the body weight of mice were measured during the experiments. In the end of treatment, the mice were killed, and the tumor tissues were dissected and weighted.
# SUM-159PT cells = experiment: Mammosphere formation after paclitaxel pre-treatment; type: cell-based; settings: 8 nM Paclitaxel or 8 nM Paclitaxel plus 5 μM B591 for 24 h
# Protocol: as §2
# Based on the finding that B591 preferentially targets CSCs, we supposed that by eliminating the breast CSCs, B591 might delay breast tumor recurrence after initial treatment with chemotherapy drugs. Paclitaxel is a first-line chemotherapeutic agent used for breast cancer therapy. SUM-159PT cells were pre-treated with paclitaxel, and then the cells remaining alive were cultured for mammospheres.
# [4] = test system: PI3K/Akt signaling in MDA-MB-231 and SUM-159PT cells; experiment: Western blot of PI3K/mTOR signaling (Supplementary Fig. S5A); settings: 5 h
# [5] = test system: MDA-MB-231 and SUM-159PT mammospheres; experiment: Secondary mammosphere-formation assay; type: cell-based, human; settings: primary mammospheres treated 48 h, then passaged
# Protocol: Cells were treated with indicated agents for 48 h, and cells were harvested and processed for apoptosis assay using the PE-Annexin V/7-AAD Apoptosis Detection Kit. d Representative flow cytometry plots of apoptosis inducing activity of B591 (10 μM) and paclitaxel (10 nM) on monolayer and mammosphere MDA-MB-231 cells. e B591 preferentially targeted CD44^high/CD24^low cells. Cells were treated with B591 or paclitaxel for 2 days. Following a 4-day recovery period, cells were co-stained with CD44 and CD24 antibodies and subjected to FACS analysis. Representative flow cytometry plots show the effect of B591 on CD44^high/CD24^low population in MDA-MB-231 cells in vitro. f B591 decreased mammosphere forming efficiency. Primary MDA-MB-231 mammospheres were treated with B591 or paclitaxel for 48 h. Results of the secondary mammosphere-formation assay are shown. Scale bar represents 40 μm. g B591 decreased the expression of CSC markers in MDA-MB-231 cells. Cells were treated with B591 or paclitaxel for 2 days. […]
# In the mammosphere assay, MDA-MB-231 (Fig. 3f) and SUM-159PT (Supplementary Fig. S10D) cells were treated with B591 or paclitaxel, and the mammospheres were collected and subsequently passaged. Secondary Mammosphere-forming activity was determined, which reflects the self-renewal capability of CSCs. […]
# [6] = test system: phosphorylation of Akt and ERK in RD cells; experiment: Immunoblotting of feedback activation of Akt and ERK; type: cell-based, human; settings: up to 24 h, B591 10 μM
# Protocol: Fig. 2 B591 inhibits PI3K/Akt pathway in multiple cancer cell lines. a Representative images of Akt1 redistribution in IGF-1-treated cells in the absence or presence of B591. Scale bar represents 10 μm. Arrows indicate IGF-1-mediated membrane translocation detected by the image analysis algorithm. b Inhibition of mTORC1 and mTORC2 signaling in multiple cancer cell lines, exposed for 5 h to increasing concentrations of B591. c HepG2 cells were treated with DMSO or 20 μM of B591 for 5 h. Immunofluorescence (red) intensity reflects eIF4E subcellular distribution. Cells were visualized with high content reader. Representative images are shown, and scale bar represents 50 μm. d Nuclear-to-cytoplasmic ratio of eIF4E in five cancer cell lines was determined via high content reader. e The phosphorylation of AKT and ERK was determined by immunoblotting in RD cells in the presence of 10 μM of B591 after indicated time of exposure. f Inhibition of the phosphorylation of AKT and ERK in RD cells treated with B591, PI-103 or Rapamycin for 24 h was determined by immunoblotting
# Despite a significant efficacy in preclinical models, the clinical tumor response to mTORC1 inhibitors, such as rapalogs, is modest. […]
Structure (SMILES),"Proliferation inhibitory activity, mammosphere versus monolayer cells [1]","Apoptosis induction, mammosphere versus monolayer populations [2]",Tumor growth and regrowth after end of treatment [3],Formation of mammospheres / paclitaxel-enriched CSCs (SUM-159PT cells),"Effect on PI3K/Akt, mTORC1 and mTORC2 signaling [4]",Secondary mammosphere-forming ability [5],Phosphorylation of Akt and ERK [6]
"CC(=O)O[C@H]1C(=O)[C@@]2(C)[C@H]([C@H](OC(=O)c3ccccc3)[C@]3(O)C[C@H](OC(=O)[C@H](O)[C@@H](NC(=O)c4ccccc4)c4ccccc4)C(C)=C1C3(C)C)[C@]1(OC(C)=O)CO[C@@H]1C[C@@H]2O [paclitaxel, reference compound]",mammosphere cells were resistant,induced less apoptosis of mammosphere populations than monolayer populations,"induced initial tumor remission, but these tumors regrew quickly after termination of paclitaxel therapy",increased the formation of mammospheres,did not show any effect,increased,–
"CO[C@H]1C[C@@H]2CC[C@@H](C)[C@@](O)(O2)C(=O)C(=O)N2CCCC[C@H]2C(=O)O[C@H]([C@H](C)C[C@@H]2CC[C@@H](O)[C@H](OC)C2)CC(=O)[C@H](C)/C=C(\C)[C@@H](O)[C@@H](OC)C(=O)[C@H](C)C[C@H](C)/C=C/C=C/C=C/1C [rapamycin, reference compound]",–,–,–,–,–,–,induced a hyper-activation of Akt and increased ERK phosphorylation
Oc1cccc(-c2nc(N3CCOCC3)c3oc4ncccc4c3n2)c1 [PI-103],–,–,–,–,inhibited PI3K downstream mTORC1 and mTORC2 signaling,–,–
